Data: paper PMC6429200, “Synthesis and Broad Antiviral Activity of Novel 2-aryl-isoindolin-1-ones towards Diverse Enterovirus A71 Clinical Isolates” (Molecules, 2019)

What was measured:
[1] = test system: EV-A71 strain Jiangsu52 (JS52); assay: CPE inhibition assay for anti-EV-A71 in Vero cells, Jiangsu52 strain; format: cell-based, Enterovirus 71 (EV-A71); conditions: for Jiangsu52 SI: CC50/EC50; for EC50: Enterovirus A, EVA71, Vero cells, 100TCID50, 48 h
Procedure: (§1) An in-vitro antiviral assay was established using the Africa monkey kidney cell line Vero which was infected with different EV-A71 clinical isolates (BrCr, H, Shenzhen98 and Jiangsu52). A total of 24 synthetic compounds were initially screened in such an assay to determine their inhibitory effect on virus replication at 3-fold diluted concentrations serial (400~0.18 μM). The 50% effective concentration (EC50) of each compound was calculated according to its inhibitory rate values with the Reed–Muench method. The 50% cytotoxic concentration (CC50) was defined as the concentration that inhibited 50% cellular growth in comparison with the controls. The selectivity index (SI) was calculated as CC50/EC50. […] Generally, the EV-A71 H strain was less sensitive to most of the active compounds as compared to the other virus strains.
(§2) EV-A71 strain ShenZhen98 (SZ98) was isolated from the throat swab sample of an HFMD case which occurred in 1998 in China. This was kindly provided by Dr. Qi Jin, Institute of Pathogen Biology, Chinese Academy of Medical Science and Peking Union Medical School, Beijing, China. EV-A71 strains BrCr (VR-1775) and H (VR-1432) were purchased from the ATCC. The EV-A71 strain JS52 was a kind gift from Dr. Xiangzhong Ye, Beijing Wantai Biological Pharmacy Enterprise Co., Ltd. EV-A71 were all passaged in Vero cells.
(§3) The anti-EV-A71 activity of compounds was determined by the CPE inhibition method. Briefly, cells (3 × 10^4 cells/well) were plated into 96-well culture plates for incubation for 24 h. The medium was then removed and cells were infected with EV-A71 with 100TCID50 (50% tissue culture infective doses) in serum-free medium for 1 h at 37 °C. Then, the unbound viruses were removed and various concentrations of compounds were supplemented and incubated for another 48 h. The EC50 was determined by the Reed–Muench method. The selectivity index was calculated as the ratio of CC50/EC50 [15].

[2] = test system: EV-A71 strain ShenZhen98 (SZ98); assay: CPE inhibition assay for anti-EV-A71 in Vero cells, Shenzhen98 strain; format: cell-based, Enterovirus 71 (EV-A71); conditions: for Shenzhen98 SI: CC50/EC50; for EC50: Enterovirus A, EVA71, Vero cells, 100TCID50, 48 h
Procedure: as §1, §2, §3

[3] = test system: EV-A71 strain BrCr; assay: CPE inhibition assay for anti-EV-A71 in Vero cells, BrCr strain; format: cell-based, Enterovirus 71 (EV-A71); conditions: for BrCr SI: CC50/EC50; for EC50: Enterovirus A, EVA71, Vero cells, 100TCID50, 48 h
Procedure: as §1, §2, §3

[4] = Cytotoxicity assay (CPE) on Vero cells; format: cell-based; conditions: African green monkey; Vero cells, 3 days of incubation, Reed–Muench; read-out: CC50
Procedure: as §1
African green monkey kidney (Vero) cells were purchased from the American Type Culture Collection (ATCC) and were cultured in minimum essential medium (MEM) supplemented with 10% fetal bovine serum (FBS) (GIBCO) and antibiotics (100 U/mL penicillin and […] streptomycin) at 37 °C in a 5% CO2 incubator.
The cytotoxic effects of compounds on Vero cells were detected by the cytopathic effect (CPE) assay. Briefly, cells (3 × 10^4 cells/well) were seeded into 96-well culture plates and incubated overnight. Then, the medium was removed and different concentrations of compounds were applied in triplicate. After 3 days of incubation, the CC50 was defined as the concentration that inhibited 50% cellular growth in comparison with the untreated controls, as calculated by the Reed–Muench method.

[5] = test system: EV-A71 strain H; assay: CPE inhibition assay for anti-EV-A71 in Vero cells, H strain; format: cell-based, Enterovirus 71 (EV-A71); conditions: for H SI: CC50/EC50; for EC50: Enterovirus A, EVA71, Vero cells, 100TCID50, 48 h
Procedure: as §1, §2, §3

Compound: COc1ccc(N2Cc3ccc(N)cc3C2=O)cc1 [Compound 4, 6-amino-2-(4-methoxyphenyl)isoindolin-1-one]
- Jiangsu52 SI [1]: 40
- EC50 [1]: 5.74 ± 0.54 µM
- Shenzhen98 SI [2]: 43
- EC50 [2]: 5.27 ± 0.44 µM
- BrCr SI [3]: 44
- EC50 [3]: 5.27 ± 0.44 µM
- CC50 at 3 days [4]: 231 µM
- H SI [5]: 19
- EC50 [5]: 11.7 ± 2.1 µM

Compound: COc1ccc(N2Cc3cc(N)ccc3C2=O)cc1 [Compound 5, 5-amino-2-(4-methoxyphenyl)isoindolin-1-one]
- Jiangsu52 SI [1]: 16
- EC50 [1]: 9.7 ± 0.76 µM
- Shenzhen98 SI [2]: 17
- EC50 [2]: 9.12 ± 0.76 µM
- BrCr SI [3]: 17
- EC50 [3]: 9.12 ± 0.76 µM
- CC50 at 3 days [4]: 159 ± 17.1 µM
- EC50 [5]: 16.2 ± 1.9 µM

Compound: O=C1c2ccccc2CN1c1ccccc1 [Compound A1, 22-phenylisoindolin-1-one]
- Jiangsu52 SI [1]: 47
- EC50 [1]: 7.87 ± 0.91 µM
- Shenzhen98 SI [2]: 47
- EC50 [2]: 7.87 ± 0.91 µM
- BrCr SI [3]: 47
- EC50 [3]: 7.87 ± 0.91 µM
- CC50 at 3 days [4]: 370 ± 39.8 µM
- H SI [5]: 13
- EC50 [5]: 28.7 ± 4.07 µM

Compound: O=C1c2ccccc2CN1c1ccc(F)cc1 [Compound A2, 2-(4-fluorophenyl)isoindolin-1-one]
- Jiangsu52 SI [1]: 58
- EC50 [1]: 3.74 ± 0.8 µM
- Shenzhen98 SI [2]: 49
- EC50 [2]: 4.43 ± 0.68 µM
- BrCr SI [3]: 67
- EC50 [3]: 3.23 ± 0.25 µM
- CC50 at 3 days [4]: 218 ± 22.3 µM
- H SI [5]: 49
- EC50 [5]: 4.43 ± 0.88 µM

Compound: O=C1c2ccccc2CN1c1ccc(Cl)cc1Cl [Compound A5, 2-(2,4-dichlorophenyl)isoindolin-1-one]
- Jiangsu52 SI [1]: 54
- EC50 [1]: 1.27 ± 0.01 µM
- Shenzhen98 SI [2]: 49
- EC50 [2]: 1.39 ± 0.17 µM
- BrCr SI [3]: 54
- EC50 [3]: 1.27 ± 0.01 µM
- CC50 at 3 days [4]: 68.4 ± 5.72 µM
- H SI [5]: 38
- EC50 [5]: 1.81 ± 0.21 µM

Compound: O=C1c2ccccc2CN1c1ccc(-c2ccccc2)cc1 [Compound A6, 2-([1,1’-biphenyl]-4-yl)isoindolin-1-one]
- Jiangsu52 SI [1]: / (/ represents selectivity index (SI) value of less than 10)
- Shenzhen98 SI [2]: / (/ represents selectivity index (SI) value of less than 10)
- BrCr SI [3]: / (/ represents selectivity index (SI) value of less than 10)
- CC50 at 3 days [4]: 218 ± 22.3 µM
- H SI [5]: / (/ represents selectivity index (SI) value of less than 10)

Compound: COc1cc(N2Cc3ccccc3C2=O)cc(OC)c1OC [Compound A8, 2-(3,4,5-trimethoxyphenyl)isoindolin-1-one]
- Jiangsu52 SI [1]: / (/ represents selectivity index (SI) value of less than 10)
- EC50 [1]: 12.6 ± 2.22 µM
- Shenzhen98 SI [2]: / (/ represents selectivity index (SI) value of less than 10)
- EC50 [2]: 13 ± 2 µM
- BrCr SI [3]: / (/ represents selectivity index (SI) value of less than 10)
- EC50 [3]: 12.6 ± 2.22 µM
- CC50 at 3 days [4]: 76.5 ± 13.1 µM
- H SI [5]: / (/ represents selectivity index (SI) value of less than 10)

Compound: O=C1c2ccccc2CN1c1ccc2ccncc2c1 [Compound A9, 2-(isoquinolin-7-yl)isoindolin-1-one]
- Jiangsu52 SI [1]: / (/ represents selectivity index (SI) value of less than 10)
- EC50 [1]: 17 ± 2.92 µM
- Shenzhen98 SI [2]: / (/ represents selectivity index (SI) value of less than 10)
- EC50 [2]: 17 ± 2.92 µM
- BrCr SI [3]: / (/ represents selectivity index (SI) value of less than 10)
- EC50 [3]: 17 ± 2.92 µM
- CC50 at 3 days [4]: 96.5 ± 9.34 µM
- H SI [5]: / (/ represents selectivity index (SI) value of less than 10)

Compound: O=C(O)c1ccc(N2Cc3ccccc3C2=O)cc1 [Compound A10, 4-(1-oxoisoindolin-2-yl)benzoic acid]
- Jiangsu52 SI [1]: / (/ represents selectivity index (SI) value of less than 10)
- EC50 [1]: 14.6 ± 2.24 µM
- Shenzhen98 SI [2]: / (/ represents selectivity index (SI) value of less than 10)
- EC50 [2]: 14.6 ± 2.24 µM
- BrCr SI [3]: / (/ represents selectivity index (SI) value of less than 10)
- EC50 [3]: 12.9 ± 2.24 µM
- CC50 at 3 days [4]: 46.2 µM
- H SI [5]: / (/ represents selectivity index (SI) value of less than 10)
- EC50 [5]: 13.7 ± 5.71 µM

Compound: CN1CCN(C(=O)c2ccc(N3Cc4ccccc4C3=O)cc2)CC1 [Compound A11, 2-(4-(4-methylpiperazine-1-carbonyl)phenyl)isoindolin-1-one]
- Jiangsu52 SI [1]: / (/ represents selectivity index (SI) value of less than 10)
- Shenzhen98 SI [2]: / (/ represents selectivity index (SI) value of less than 10)
- BrCr SI [3]: / (/ represents selectivity index (SI) value of less than 10)
- CC50 at 3 days [4]: 115 µM
- H SI [5]: / (/ represents selectivity index (SI) value of less than 10)

Compound: O=C(c1ccc(N2Cc3ccccc3C2=O)cc1)N1CCOCC1 [Compound A12, 2-(4-(morpholin-4-carbonyl)phenyl)isoindolin-1-one]
- Jiangsu52 SI [1]: / (/ represents selectivity index (SI) value of less than 10)
- EC50 [1]: 30.3 ± 2.38 µM
- Shenzhen98 SI [2]: / (/ represents selectivity index (SI) value of less than 10)
- EC50 [2]: 30.3 ± 2.38 µM
- BrCr SI [3]: / (/ represents selectivity index (SI) value of less than 10)
- EC50 [3]: 27 ± 3.38 µM
- CC50 at 3 days [4]: 180 ± 27.3 µM
- H SI [5]: / (/ represents selectivity index (SI) value of less than 10)
- EC50 [5]: 24.4 ± 9.37 µM

Compound: CCCN(CCC)c1ccc2c(c1)C(=O)N(c1ccc(OC)cc1)C2 [Compound B2, 6-(dipropylamino)-2-(4-methoxyphenyl)isoindolin-1-one]
- Jiangsu52 SI [1]: / (/ represents selectivity index (SI) value of less than 10)
- EC50 [1]: 40.3 ± 5.54 µM
- Shenzhen98 SI [2]: / (/ represents selectivity index (SI) value of less than 10)
- EC50 [2]: 34.6 ± 6.54 µM
- BrCr SI [3]: / (/ represents selectivity index (SI) value of less than 10)
- EC50 [3]: 34.6 ± 6.54 µM
- CC50 at 3 days [4]: 257 ± 35.3 µM
- H SI [5]: / (/ represents selectivity index (SI) value of less than 10)

Compound: CCCNc1ccc2c(c1)CN(c1ccc(OC)cc1)C2=O [Compound B3, 2-(4-methoxyphenyl)-5-(propylamino)isoindolin-1-one]
- Jiangsu52 SI [1]: 11
- EC50 [1]: 20.6 ± 1.01 µM
- Shenzhen98 SI [2]: 13
- EC50 [2]: 18.4 ± 2.41 µM
- BrCr SI [3]: 13
- EC50 [3]: 18.4 ± 2.41 µM
- CC50 at 3 days [4]: 231 µM
- H SI [5]: / (/ represents selectivity index (SI) value of less than 10)

Compound: CCCN(CCC)c1ccc2c(c1)CN(c1ccc(OC)cc1)C2=O [Compound B4, 5-(dipropylamino)-2-(4-methoxyphenyl)isoindolin-1-one]
- Jiangsu52 SI [1]: / (/ represents selectivity index (SI) value of less than 10)
- Shenzhen98 SI [2]: / (/ represents selectivity index (SI) value of less than 10)
- BrCr SI [3]: / (/ represents selectivity index (SI) value of less than 10)
- CC50 at 3 days [4]: 124 ± 12.6 µM
- H SI [5]: / (/ represents selectivity index (SI) value of less than 10)

Compound: CCC(=O)Nc1ccc2c(c1)C(=O)N(c1ccc(OC)cc1)C2 [Compound C1, N-(2-(4-methoxyphenyl)-3-oxoisoindolin-5-yl)propionamide]
- Jiangsu52 SI [1]: 25
- EC50 [1]: 5.91 ± 0.65 µM
- Shenzhen98 SI [2]: 26
- EC50 [2]: 5.85 ± 0.6 µM
- BrCr SI [3]: 26
- EC50 [3]: 5.85 ± 0.6 µM
- CC50 at 3 days [4]: 152 ± 27 µM
- H SI [5]: / (/ represents selectivity index (SI) value of less than 10)
- EC50 [5]: > 44.4 µM

Compound: CCC(=O)Nc1ccc2c(c1)CN(c1ccc(OC)cc1)C2=O [Compound C2, N-(2-(4-methoxyphenyl)-1-oxoisoindolin-5-yl)propionamide]
- Jiangsu52 SI [1]: / (/ represents selectivity index (SI) value of less than 10)
- Shenzhen98 SI [2]: / (/ represents selectivity index (SI) value of less than 10)
- BrCr SI [3]: / (/ represents selectivity index (SI) value of less than 10)
- CC50 at 3 days [4]: 231 µM
- H SI [5]: / (/ represents selectivity index (SI) value of less than 10)

Compound: CCC(=O)Nc1ccc2c(c1)CN(c1ccc(C)cc1)C2=O [Compound C3, N-(1-oxo-2-(p-tolyl)isoindolin-5-yl)propionamide]
- Jiangsu52 SI [1]: / (/ represents selectivity index (SI) value of less than 10)
- Shenzhen98 SI [2]: / (/ represents selectivity index (SI) value of less than 10)
- BrCr SI [3]: / (/ represents selectivity index (SI) value of less than 10)
- CC50 at 3 days [4]: 113 ± 17.2 µM
- H SI [5]: / (/ represents selectivity index (SI) value of less than 10)
